Assay results: patent US20170056561A1, “COMPOSITIONS FOR THE TREATMENT OF JOINTS” (CorMedix Inc., priority 2015, published 2017)

Key:
[1] = test system: Stapylococcus aureus strain SA 113; assay: Solution exposure of HA/taurolidine hydrogels to living cultures (bacteria kill); assay type: cell-based; settings: 20 μl early phase culture in 980 μl formulation
Protocol: (§1) The following evaluations were done to assess the performance of gels comprising hyaluronic acid and taurolidine. Solution exposure of the hyaluronic acid/taurolidine hydrogels, immersed in early phase concentrations of 2 test microorganisms, were conducted. Additionally, the physical properties of the hydrogels were assessed to determine their shear/thixotropic properties.
(§2) In this study, two strains of bacteria, Pseudomonas aeruginosa (PAO1) and Stapylococcus aureus strain SA 113), were evaluated for total kill of each of the strains after 4 and 24 hours of exposure. 20 μl of early phase culture of each strain was placed in 980 μl of each hyaluronic acid/taurolidine formulation. Samples of remaining bacteria concentrations were determined for the samples after 4 and 24 hours of exposure. Four controls were prepared, one control without hyaluronic acid and three other controls with different molecular weights of hyaluronic acid (low, medium and high MW) (all without taurolidine). These were compared against the same 3 different molecular weights of hyaluronic acid which contained taurolidine, with each hyaluronic acid MW containing target concentrations of 1.5, 3, or 6% taurolidine by weight in the hyaluronic acid hydrogel matrix (Table 1). […] These were also evaluated against a known antimicrobial, gentamicin.

[2] = test system: Pseudomonas aeruginosa (PAO1); assay: as above; assay type: cell-based; settings: 20 μl early phase culture in 980 μl formulation
Protocol: as §1, §2

## Gentamicin
[1]; 4 hour exposure
  Remaining bacteria concentrations SA113 (4 hr): 3.77E+02
[1]; 24 hour exposure
  Remaining bacteria concentrations SA113 (24 hr): 8.33E+00
[2]; 4 hour exposure
  Remaining bacteria concentrations PA01 (4 hr): 0.00E+00
[2]; 24 hour exposure
  Remaining bacteria concentrations PA01 (24 hr): 0.00E+00
